The series is described as follows: Accelerated stability study, compatibility of MBZ and FCC (HPLC-UV). The format is physicochemical. The settings on record: drug loaded FCC with 20 and 50% drug content, 25° C., 40° C. and 60° C., 25 days. The method, then: The compatibility of MBZ and FCC was investigated by an accelerated stability study. Drug loaded FCC particles with 20 and 50% drug content were stored at 25° C., 40° C. and 60° C. over a period of 25 days. On several days the MBZ content was analyzed by HPLC-UV.

`Cc1ncc([N+](=O)[O-])n1CCOC(=O)c1ccccc1` [MBZ, metronidazole benzoate]: the “degradation products from hydrolysis (metronidazole, benzoic acid) detected” value is given as “not any degradation products”.

These data come from patent US9895314B2, “Delayed release pharmaceutical formulation containing porous carrier particles for colon targeting” (Tillotts Pharma AG, priority 2014, dated 2018).
